The structures appear in SMILES notation. Several values for one entry are separate records, joined by “and”; a condition that tells them apart may be missing. Equal entries are not always repeated. Where two headings read alike, the source gives them in different places. Bounds are passed on as bounds.

In general, AUC(0-t) refers to exposure summed from dosing to a finite time, without extrapolation to infinity. By Cmax is commonly meant the peak of the concentration-time curve.

Data set [1] in a line: Range-finding PK study, uninfected WT mice, oral rac-PZQ. The conditions noted are these: female, WT (wild-type), mouse, whole blood, 400 mg/kg.
The nature of data set [2]: Range-finding PK study, uninfected 8HUM mice, oral rac-PZQ. In kind it is in vivo, mouse. The conditions noted are these: for AUC(0-t) / Cmax: female, mouse, whole blood, uninfected 8HUM mice, single oral 25 mg/kg rac-PZQ, total blood, n = 2. On the procedure: Dose formulations were prepared on the day of dosing. […] Supernatants were analysed by LC-MS/MS immediately. […] Chromatographic separation was […] […] […] used. […] Intrinsic clearance determination […] […] Lower […] […] Analytical acceptance criteria were reported previously (1).

Data set [3] can be described thus: PK in S. mansoni infected 8HUM mice, oral rac-PZQ. Format: in vivo. The conditions noted are these: female, mouse, whole blood, total blood, n = 3.
A short description of data set [4]: PK in S. mansoni infected WT mice, oral rac-PZQ. In kind it is in vivo. The conditions noted are these: female, mouse, whole blood, single oral 400 mg/kg rac-PZQ at 41 d postinfection, total blood, n = 3.
For data set [5], the system named is S. mansoni. Description: PZQ-induced efficacy (worm and egg burden reduction) in S. mansoni infected 8HUM mice. Format: in vivo, Schistosoma mansoni. The conditions noted are these: for worm burden reduction: day 47. The text has this: (§1) Lower […] Analytical acceptance criteria were reported previously (1). […] Reactions were […]
In data set [6] the test system is S. mansoni. The conditions noted are these: cited from earlier work.
The format of data set [7] is in vitro ADME. The conditions noted are these: human, microsomes. The procedure:
Supernatants were analysed by LC-MS/MS immediately. […] Chromatographic separation was achieved using a previously described method (2) with minor modifications. […] The flow rate was 1.2 mL/min. […] used. […] Intrinsic clearance determination […] Lower […]

Data set [8] is classed as in vitro ADME. The conditions noted are these: mouse, microsomes.
Data set [9] relates to S. mansoni. Description: PZQ-induced efficacy (worm and egg burden reduction) in S. mansoni infected WT mice. In kind it is in vivo, Schistosoma mansoni.
Source text: as §1

Setting [10] is: single oral 400 mg/kg, day 47, 400 mg/kg.

In the case of `O=C(C1CCC(O)CC1)N1CC(=O)N2CCc3ccccc3C2C1` (stereo not drawn) [4OH-PZQ], the AUC(0-t) worked out at 98500 ng·h/mL in data set [1]; 19400 ng·h/mL in data set [2]; 108000 ng·h/mL in [3] (single oral 100 mg/kg rac-PZQ); 19400 ng·h/mL in data set [3] (single oral 200 mg/kg rac-PZQ); 197000 ng·h/mL in [4]. Further, the Cmax in data set [1] is 27600 ng/mL; in data set [2] it was 5360 ng/mL; in data set [3] (single oral 100 mg/kg rac-PZQ) it was 21700 ng/mL; in data set [3] (single oral 200 mg/kg rac-PZQ), 5360 ng/mL; in [4], 42600 ng/mL. The “AUClast and Cmax in 8HUM animals, fold lower compared to WT animals” value in [2] (8HUM 25 mg/kg vs WT 400 mg/kg rac-PZQ, oral, uninfected) was “~ fivefold”.

With `O=C(C1CCCCC1)N1CC(=O)N2CCc3ccccc3C2C1` (racemic) [rac-PZQ, praziquantel], the worm burden reduction in the data set on S. mansoni [5] (8HUM mice, single oral 100 mg/kg, 100 mg/kg) is 92%; in the data set with S. mansoni [5] (8HUM mice, single oral 100 mg/kg, listed as PZQ, 100 mg/kg) it was above 90%; with S. mansoni [5] (8HUM mice, single oral 200 mg/kg) it was 98%. Besides, the “reductions in worm burdens” value in the data set on S. mansoni [5] (8HUM mice, single oral doses of 100 to 200 mg/kg bodyweight) is reported as above 90%. Besides, the “increase in efficacy in 8HUM mice vs WT mice at the same dose” value in the data set on S. mansoni [5] (single 100 mg/kg oral dose, 8HUM (this study) vs WT (ref 7)) is listed as “approximately twofold”. Moreover, in the data set with S. mansoni [6] (WT animals, single oral dose of 400 mg/kg rac-PZQ, 400 mg/kg), the “drug-induced efficacy (worm burden reduction)” value is ~ 94% and > 90%. Moreover, the “reduction in worm burden” value in the data set with S. mansoni [6] (WT mice, single 100 mg/kg bodyweight oral dose, at most) was at most 53%. For the same molecule, the “Microsomal CLint” value in data set [7] is recorded as 3.2 mL/min/g; in data set [8] it was 2.7 mL/min/g. Further, in the data set with S. mansoni [9] (single oral 400 mg/kg at 41 d postinfection, day 47, vs excipient controls), the “reduction in adult worm burdens” value is recorded as 93%. For the same molecule, the “worm burden reduction, females” value in the data set on S. mansoni [9] (setting [10]) was determined as 95%. For the same molecule, in the data set with S. mansoni [9] (setting [10]), the “worm burden reduction, males” value is reported as 90%.

Turning to `O=C(C1CCCCC1)N1CC(=O)N2CCc3ccccc3[C@@H]2C1` [R-PZQ], the AUC(0-t) in data set [1] turned out to be 12000 ng·h/mL; in [2] it was 2860 ng·h/mL; in data set [3] (single oral 100 mg/kg rac-PZQ) it was 25700 ng·h/mL; in data set [3] (single oral 200 mg/kg rac-PZQ), 68300 ng·h/mL; in data set [4], 73600 ng·h/mL. Also, the Cmax in data set [1] amounted to 7740 ng/mL; in data set [2] it was 2210 ng/mL; in data set [3] (single oral 100 mg/kg rac-PZQ) it was 13200 ng/mL; in data set [3] (single oral 200 mg/kg rac-PZQ), 20800 ng/mL; in data set [4] it was 25800 ng/mL.

The record behind these values is paper PMC13079396, “Use of a cytochrome P450 humanized mouse model to refine schistosomiasis drug discovery” (Proceedings of the National Academy of Sciences of the …, 2026).
